Laboratory results: publication PMC3836681 (Journal of molecular biology, 2012)

Assays:
Assay type in all cases: binding
SMb20568 = SMb20568 (Sinorhizobium meliloti, UniProt Q92TN0); assay: fluorescence thermal shift; details: 10 µM protein, 1000 µM ligand
RPA0668 [1] = biological target: T1, RPA0668 (Rhodopseudomonas palustris, UniProt G3XCQ4); assay: X-ray crystal structure […] Å; details: SeMet protein, 5 mM sodium PHB in crystallization
RPD1586 [2] = biological target: T2, RPD1586 (Rhodopseudomonas palustris, UniProt Q13AR6); assay: X-ray crystal structure […] Å; details: SeMet protein
RPA0668 [3] = biological target: T1, RPA0668; assay: X-ray crystal structure […] Å; details: SeMet protein, 5 mM sodium BEZ in crystallization
RPA0668 [4] = biological target: T1, RPA0668; assay: fluorescence thermal shift; details: 10 µM protein, 1000 µM ligand
Bll5953 = Bll5953 (Bradyrhizobium diazoefficiens, UniProt Q89HN7); assay: fluorescence thermal shift; details: 10 µM protein, 1000 µM ligand
RPB1579 = RPB1579 (Rhodopseudomonas palustris, UniProt Q2IZS1); assay: fluorescence thermal shift; details: 10 µM protein, 1000 µM ligand
RPA4029 = RPA4029 (Rhodopseudomonas palustris, UniProt Q6N2M1); assay: fluorescence thermal shift; details: 10 µM protein, 1000 µM ligand
RPD1586 [5] = biological target: T2, RPD1586; assay: X-ray crystal structure […] Å; details: SeMet protein, 5 mM sodium VLA in crystallization

O=C(O)c1cc(O)c(O)c(O)c1 [gallic acid]
ΔTm (SMb20568): exhibits a greater ΔTm with gallic acid

O=C(O)c1ccc(O)cc1 [PHB, 4-hydroxybenzoate]
X-ray crystal structure 1.40 Å; fluorescence thermal shift (RPA0668 [1]): RPA0668 has been determined in complex with the two most preferred ligands BEZ and PHB | X-ray crystal structure 2.22 Å; fluorescence thermal shift (RPD1586 [2]): RPD1586 protein from the Ic subgroup was crystallized with PHB, DHB, and VLA | ΔTm (SMb20568): equivalent thermal stabilization with 4-hydroxybenzoate (PHB) and DHB

O=C(O)c1cccc(O)c1 [3-hydroxybenzoate]
ΔTm (SMb20568): increased protein stability of SMb20568 with 3-hydroxybenzoate or gallic acid

O=C(O)c1ccccc1 [BEZ, benzoate]
X-ray crystal structure 1.84 Å; fluorescence thermal shift (RPA0668 [3]): RPA0668 has been determined in complex with the two most preferred ligands BEZ and PHB

O=Cc1ccccc1 [benzaldehyde]
ΔTm (RPA0668 [4]): excellent thermal stabilization is observed for aromatic compounds with an aldehyde or carboxyl group

O=C(O)c1ccc(O)c(O)c1 [DHB, 3,4-dihydroxybenzoate]
ΔTm (Bll5953): the preferred ligands (DHB, VLA) are the same for each protein | ΔTm (RPB1579): the preferred ligands (DHB, VLA) are the same for each protein | ΔTm (SMb20568): equivalent thermal stabilization with 4-hydroxybenzoate (PHB) and DHB | ΔTm (RPA4029): the preferred ligands (DHB, VLA) are the same for each protein

COc1cc(C(=O)O)ccc1O [VLA, 4-hydroxy-3-methoxybenzoate]
ΔTm (Bll5953): the preferred ligands (DHB, VLA) are the same for each protein | ΔTm (RPB1579): the preferred ligands (DHB, VLA) are the same for each protein | X-ray crystal structure 1.86 Å; fluorescence thermal shift (RPD1586 [5]): RPD1586 protein from the Ic subgroup was crystallized with PHB, DHB, and VLA | ΔTm (RPA4029): the preferred ligands (DHB, VLA) are the same for each protein
